Key:
FABP4 = FABP4 (Homo sapiens (Human), UniProt P15090); test: Fluorescence (ANS) competition binding assay, FABP4; conditions: ANS displacement
Description: (§1) This example illustrates a two-step fluorescence binding assay study used to determine the binding affinity of the various inhibitor compounds disclosed herein with the various FABPs: FABP3, FABP4, FABP5 and FABP7. Further secondary screening studies were carried out for compounds with high binding affinities toward the FABPs and based on their ability to activate the nuclear receptors PPARα, PPARγ, or PPARδ.
(§2) Binding assays for FABP3, FABP4, FABP5 and FABP7 were carried out by fluorescence titrations. His-tagged FABPs were bacterially expressed in E. coli, purified using Ni Sepharose beads, and the equilibrium dissociation constants (Kd) that characterize their interactions with different inhibitor compounds were measured by fluorescence competition assays. The method entails two steps as described in e.g., Lin, Q. et al., “Ligand selectivity of the peroxisome proliferator-activated receptor alpha,” Biochemistry 38, 185-190, doi:10.1021/bi9816094 [pii](1999). In the first step, Kd for the association of the protein with the fluorescent fatty acid probe ANS was measured. Protein (2 μM) was titrated with ANS from a concentrated solution in DMSO. Ligand binding was monitored by following the increase in the fluorescence of the ligand upon binding to the protein, and Kd for the association of ANS with the each FABP was computed from titration curves as described in e.g., Norris, A. W. & Li, E., “Fluorometric titration of the CRABPs,” Methods Mol Biol 89, 123-139 (1998)). In the second step, Kds for binding of non-fluorescent ligands were measured by monitoring their ability to displace ANS in the binding pocket of the protein. Each FABP was precomplexed with ANS at 1:1 molar ratio and titrated with the different compounds whose binding was reflected by a decrease in probe fluorescence. Kds were extracted from the EC50 of the competition curve and the measured Kd for ANS.

FABP7 = FABP7 (Homo sapiens (Human), UniProt O15540); test: Fluorescence (ANS) competition binding assay, FABP7; conditions: ANS displacement
Description: as §1, §2

FABP3 = FABP3 (Homo sapiens (Human), UniProt P05413); test: Fluorescence (ANS) competition binding assay, FABP3; conditions: ANS displacement
Description: as §1, §2

FABP5 = FABP5 (Homo sapiens (Human), UniProt Q01469); test: Fluorescence (ANS) competition binding assay, FABP5; conditions: ANS displacement
Description: as §1, §2

PPARα = PPARα (Homo sapiens (Human), UniProt Q07869); test: Transcriptional activation assay in COS7 cells, PPARα; type: cell-based
Description: (§3) COS-7 were cultured in 6-well plates and co-transfected with either a luciferase reporter driven by 3 copies of a PPRE and expression vector for either PPARδ, PPARα or PPARγ together with a vector harboring cDNA for β-galactosidase, serving as a transfection control. To test whether FABP4 or FABP5 mediate activation of their cognate receptors PPARγ and PPARδ, respectively, cells were also co-transfected with a plasmid harboring sequence of either FABP4 or FABP5. 18 h post-transfection, cells were placed in a serum-free medium and treated with agonist/compound. 18 h. later, cells were lysed, luciferase activity was assayed (Promega, WI, USA) and corrected for transfection efficiency by the activity of β-galactosidase.
(§4) Transcriptional activation assays were carried out utilizing COS7 cells as described above.

[1] = system: Salmonella typhimurium tester strains TA98, TA100, TA1535, TA1537 and Escherichia coli tester strain WP2 uvrA (pKM101); test: Ames test, overall conclusion for the tested strains; type: cell-based; conditions: presence and absence of S9
Description: (§5) PD152 (compound 2) was tested for genotoxic and cytotoxic side effects by Ames test. The Ames test is a Bacterial Reverse Mutation Test of mutagenicity that utilizes Salmonella typhimurium tester strains TA98, TA100, TA1535, TA1537 and Escherichia coli tester strain WP2 uvrA (pKM101), both in the presence and absence of S9.
(§6) The compound PD152 was tested at 10 concentrations (0.032-1000 μg/plate) in the presence of, or absence of, the hepatic enzyme S9.
(§7) The aniline FABP4/5 inhibitor compound, 2-((2-((2,4-dichloro-5-isopropoxyphenyl)amino)-2-oxoethyl)thio)-2-methylpropanoic acid (compound “B104” as disclosed in WO2023043803A1) also was tested for genotoxic and cytotoxic side effects by Ames test. B104 was tested using the Salmonella typhimurium tester stains TA98, TA100, TA1535, and TA1537, both in the presence and absence of the hepatic enzyme S9, at 5 concentrations (1.5-64 μg/plate).

[2] = system: Salmonella typhimurium tester strain TA98; test: Ames test (Bacterial Reverse Mutation Test), TA98; type: cell-based
Description: as §5, §6
(§8) The aniline FABP4/5 inhibitor compound, 2-((2-((2,4-dichloro-5-isopropoxyphenyl)amino)-2-oxoethyl)thio)-2-methylpropanoic acid (compound “B104” as disclosed in WO2023043803A1) also was tested for genotoxic and cytotoxic side effects by Ames test. […]

[3] = system: Salmonella typhimurium tester strain TA1537; test: Ames test (Bacterial Reverse Mutation Test), TA1537; type: cell-based
Description: as §5, §6, §8

[4] = system: Salmonella typhimurium tester strain TA1535; test: Ames test (Bacterial Reverse Mutation Test), TA1535; type: cell-based
Description: as §5, §6, §7

[5] = system: Salmonella typhimurium tester strain TA100; test: Ames test (Bacterial Reverse Mutation Test), TA100; type: cell-based
Description: as §5, §6, §7

[6] = Single dose IV and PO PK study in C57BL/6 mice; type: in vivo; conditions: mouse, plasma; male C57BL/6 mice, single oral dose 10 mg/kg
Description: C57BL/6 male mice or Han Wistar rats were used, n=3 for each administration route and compound. Single dose of each compound was administered orally (PO, 10 mg/Kg) or by intravenous administration (IV, 1 mg/Kg). Following intravenous and oral administration, blood samples (ca 0.2 mL) were collected and compound amount was measured by HLPC. For IV group, blood samples were collected at 0.083, 0.25, 0.5, 1, 2, 4, 6, 8, and 24 hours post-dose. For PO group, blood samples were collected at 0.25, 0.5, 1, 2, 4, 6, 8, and 24 hours post-dose.

PPARγ = PPARγ (Homo sapiens (Human), UniProt P37231); test: Transcriptional activation assay in COS7 cells, PPARγ; type: cell-based; conditions: PPRE luciferase reporter, PD151 and PD152 at 10 μM
Description: as §3, §4

PPARδ = PPARδ (Homo sapiens (Human), UniProt Q03181); test: Transcriptional activation assay in COS7 cells, PPARδ; type: cell-based; conditions: PPRE luciferase reporter, PD151 and PD152 at 10 μM
Description: as §3, §4

[7] = TA98, absence of S9, 1.5 μg/well
[8] = TA98, absence of S9, 10 μg/well
[9] = TA98, absence of S9, 25 μg/well
[10] = TA98, absence of S9, 64 μg/well
[11] = TA98, presence of S9, 1.5 μg/well
[12] = TA98, presence of S9, 4 μg/well
[13] = TA98, presence of S9, 10 μg/well
[14] = TA98, presence of S9, 25 μg/well
[15] = TA98, presence of S9, 64 μg/well
[16] = TA1537, absence of S9, 1.5 μg/well
[17] = TA1537, absence of S9, 4 μg/well
[18] = TA1537, absence of S9, 10 μg/well
[19] = TA1537, absence of S9, 25 μg/well
[20] = TA1537, absence of S9, 64 μg/well
[21] = TA1537, presence of S9, 1.5 μg/well
[22] = TA1537, presence of S9, 4 μg/well
[23] = TA1537, presence of S9, 10 μg/well
[24] = TA1537, presence of S9, 25 μg/well
[25] = TA1537, presence of S9, 64 μg/well
[26] = TA1535, absence of S9, 1.5 μg/well
[27] = TA1535, absence of S9, 4 μg/well
[28] = TA1535, absence of S9, 10 μg/well
[29] = TA1535, absence of S9, 25 μg/well
[30] = TA1535, absence of S9, 64 μg/well
[31] = TA1535, presence of S9, 1.5 μg/well
[32] = TA1535, presence of S9, 4 μg/well
[33] = TA1535, presence of S9, 10 μg/well
[34] = TA1535, presence of S9, 25 μg/well
[35] = TA1535, presence of S9, 64 μg/well
[36] = TA100, absence of S9, 1.5 μg/well
[37] = TA100, absence of S9, 4 μg/well
[38] = TA100, absence of S9, 10 μg/well
[39] = TA100, absence of S9, 25 μg/well
[40] = TA100, absence of S9, 64 μg/well
[41] = TA100, presence of S9, 1.5 μg/well
[42] = TA100, presence of S9, 4 μg/well
[43] = TA100, presence of S9, 10 μg/well
[44] = TA100, presence of S9, 25 μg/well
[45] = TA100, presence of S9, 64 μg/well

Chain of FABP3 (P05413 whole entry, species assumed): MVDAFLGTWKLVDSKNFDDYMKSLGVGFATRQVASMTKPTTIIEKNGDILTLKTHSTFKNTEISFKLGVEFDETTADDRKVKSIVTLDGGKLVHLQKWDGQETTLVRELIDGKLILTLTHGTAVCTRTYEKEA
Chain of FABP7 (O15540 whole entry, species assumed): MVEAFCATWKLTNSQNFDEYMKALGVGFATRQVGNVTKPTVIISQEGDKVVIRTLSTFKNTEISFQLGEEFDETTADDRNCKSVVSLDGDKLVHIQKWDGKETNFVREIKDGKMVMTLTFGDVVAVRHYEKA
Chain of FABP4 (P15090 whole entry, species assumed): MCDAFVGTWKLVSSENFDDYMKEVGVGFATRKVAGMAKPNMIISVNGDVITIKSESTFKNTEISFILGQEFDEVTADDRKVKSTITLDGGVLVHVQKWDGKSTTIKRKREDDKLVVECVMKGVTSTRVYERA
Chain of FABP5 (Q01469 whole entry, species assumed): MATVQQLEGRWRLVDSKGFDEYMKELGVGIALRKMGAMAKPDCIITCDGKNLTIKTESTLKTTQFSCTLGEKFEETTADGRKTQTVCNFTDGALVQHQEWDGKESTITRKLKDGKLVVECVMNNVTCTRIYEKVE
Chain of PPARα (Q07869 whole entry, species assumed): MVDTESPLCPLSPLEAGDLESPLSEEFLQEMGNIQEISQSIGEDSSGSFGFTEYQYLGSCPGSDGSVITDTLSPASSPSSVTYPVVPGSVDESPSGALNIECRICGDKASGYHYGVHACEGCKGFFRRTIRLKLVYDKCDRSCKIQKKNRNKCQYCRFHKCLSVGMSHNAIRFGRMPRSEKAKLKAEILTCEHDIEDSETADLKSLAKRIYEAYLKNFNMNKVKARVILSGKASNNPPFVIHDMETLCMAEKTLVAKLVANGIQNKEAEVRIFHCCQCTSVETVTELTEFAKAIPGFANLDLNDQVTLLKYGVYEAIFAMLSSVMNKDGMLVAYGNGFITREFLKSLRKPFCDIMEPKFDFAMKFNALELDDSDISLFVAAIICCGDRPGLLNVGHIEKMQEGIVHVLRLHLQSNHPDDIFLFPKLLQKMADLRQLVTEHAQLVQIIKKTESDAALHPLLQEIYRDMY
Chain of PPARδ (Q03181 whole entry, species assumed): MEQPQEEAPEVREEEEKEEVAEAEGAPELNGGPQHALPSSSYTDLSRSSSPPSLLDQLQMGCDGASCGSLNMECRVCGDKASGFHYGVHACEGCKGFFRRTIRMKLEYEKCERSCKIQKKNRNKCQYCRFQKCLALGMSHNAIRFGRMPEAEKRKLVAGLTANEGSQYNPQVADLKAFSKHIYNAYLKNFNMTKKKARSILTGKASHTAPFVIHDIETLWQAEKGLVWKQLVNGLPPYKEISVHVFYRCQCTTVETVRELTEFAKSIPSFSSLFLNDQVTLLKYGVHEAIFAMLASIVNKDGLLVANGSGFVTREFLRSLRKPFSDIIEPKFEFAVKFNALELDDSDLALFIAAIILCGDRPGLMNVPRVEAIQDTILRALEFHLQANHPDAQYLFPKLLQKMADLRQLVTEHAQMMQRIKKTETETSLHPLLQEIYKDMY
Chain of PPARγ (P37231 whole entry, species assumed): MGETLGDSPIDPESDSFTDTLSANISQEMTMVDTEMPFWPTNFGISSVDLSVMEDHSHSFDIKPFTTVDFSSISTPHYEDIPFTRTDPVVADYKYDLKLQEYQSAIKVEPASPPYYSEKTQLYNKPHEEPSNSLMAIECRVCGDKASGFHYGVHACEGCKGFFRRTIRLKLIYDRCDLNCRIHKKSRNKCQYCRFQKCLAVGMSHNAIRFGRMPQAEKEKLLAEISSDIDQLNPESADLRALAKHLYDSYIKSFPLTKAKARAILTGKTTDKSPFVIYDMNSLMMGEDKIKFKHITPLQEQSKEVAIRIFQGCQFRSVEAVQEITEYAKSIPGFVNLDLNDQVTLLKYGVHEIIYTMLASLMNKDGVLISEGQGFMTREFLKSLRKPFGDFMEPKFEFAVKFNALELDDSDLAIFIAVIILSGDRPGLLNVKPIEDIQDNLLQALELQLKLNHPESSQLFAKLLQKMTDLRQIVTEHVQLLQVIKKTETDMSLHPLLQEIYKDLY

CC(C)Oc1nc(NC(=O)COCC(=O)O)c(Cl)cc1Cl [PD155, 2-(2-((3,5-dichloro-6-isopropoxypyridin-2-yl)amino)-2-oxoethoxy)acetic acid]
Kd (FABP4): 79 nM | Kd (FABP7): 108 nM | Kd (FABP3): 117 nM | Kd (FABP5): 59 nM

Cc1cccc(Nc2cc(Cl)nc(SCC(=O)O)n2)c1C [Wy-14643, reference compound]
Activation of transcription by PPARα (PPARα; known agonist, 5 μM): induced activation of their respective receptors

CC(C)Oc1cc(NC(=O)CSC(C)(C)C(=O)O)c(Cl)cc1Cl [Compound B104, 2-((2-((2,4-dichloro-5-isopropoxyphenyl)amino)-2-oxoethyl)thio)-2-methylpropanoic acid, reference compound]
Cytotoxicity to the tested strains [1]: some level of cytotoxicity | Mutagenicity in the Ames test [1]: positive mutagenic responses | Fold increase [2, 7]: 1.26 | Mean number of revertants [2, 7]: 16 | Fold increase ([2]; TA98, absence of S9, 4 μg/well): 0.84 | Mean number of revertants ([2]; TA98, absence of S9, 4 μg/well): 10.67 | Fold increase [2, 8]: 0.97 | Mean number of revertants [2, 8]: 12.33 | Fold increase [2, 9]: 0 | Mean number of revertants [2, 9]: 0.33 | Fold increase [2, 10]: 0 | Mean number of revertants [2, 10]: 0.66 | Fold increase [2, 11]: 1.2 | Mean number of revertants [2, 11]: 20.67 | Fold increase [2, 12]: 2.3 | Mean number of revertants [2, 12]: 39 | Fold increase [2, 13]: 2.88 | Mean number of revertants [2, 13]: 49 | Fold increase [2, 14]: 2.7 | Mean number of revertants [2, 14]: 47.67 | Fold increase [2, 15]: 1.5 | Mean number of revertants [2, 15]: 26 | Fold increase [3, 16]: 0.43 | Mean number of revertants [3, 16]: 2.0 | Fold increase [3, 17]: 0.32 | Mean number of revertants [3, 17]: 1.5 | Fold increase [3, 18]: 0.21 | Mean number of revertants [3, 18]: 1.0 | Fold increase [3, 19]: 0 | Mean number of revertants [3, 19]: 0 | Fold increase [3, 20]: 0 | Mean number of revertants [3, 20]: 0 | Fold increase [3, 21]: 1.71 | Mean number of revertants [3, 21]: 4.0 | Fold increase [3, 22]: 2.36 | Mean number of revertants [3, 22]: 5.5 | Fold increase [3, 23]: 1.29 | Mean number of revertants [3, 23]: 3.0 | Fold increase [3, 24]: 1.07 | Mean number of revertants [3, 24]: 2.5 | Fold increase [3, 25]: 2.14 | Mean number of revertants [3, 25]: 5.0 | Fold increase [4, 26]: 1.20 | Mean number of revertants [4, 26]: 4 | Fold increase [4, 27]: 2.20 | Mean number of revertants [4, 27]: 7.33 | Fold increase [4, 28]: 1.40 | Mean number of revertants [4, 28]: 4.67 | Fold increase [4, 29]: 0.20 | Mean number of revertants [4, 29]: 0.67 | Fold increase [4, 30]: 0 | Mean number of revertants [4, 30]: 0 | Fold increase [4, 31]: 0.89 | Mean number of revertants [4, 31]: 5.67 | Fold increase [4, 32]: 1 | Mean number of revertants [4, 32]: 6.33 | Fold increase [4, 33]: 1.06 | Mean number of revertants [4, 33]: 6.67 | Fold increase [4, 34]: 1.68 | Mean number of revertants [4, 34]: 10.67 | Fold increase [4, 35]: 1 | Mean number of revertants [4, 35]: 6.33 | Fold increase [5, 36]: 0.8 | Mean number of revertants [5, 36]: 52 | Fold increase [5, 37]: 1.05 | Mean number of revertants [5, 37]: 68 | Fold increase [5, 38]: 0.86 | Mean number of revertants [5, 38]: 56 | Fold increase [5, 39]: 0 | Mean number of revertants [5, 39]: 0 | Fold increase [5, 40]: 0 | Mean number of revertants [5, 40]: 0.67 | Fold increase [5, 41]: 3 | Mean number of revertants [5, 41]: 387 | Fold increase [5, 42]: 5.18 | Mean number of revertants [5, 42]: 658 | Fold increase [5, 43]: 6.68 | Mean number of revertants [5, 43]: 849 | Fold increase [5, 44]: 6.55 | Mean number of revertants [5, 44]: 833 | Fold increase [5, 45]: 4.44 | Mean number of revertants [5, 45]: 564.5

CC(C)Oc1cc(NC(=O)CSCC(=O)O)c(Cl)cc1Cl [Compound B4, 2-((2-((2,4-dichloro-5-isopropoxyphenyl)amino)-2-oxoethyl)thio)acetic acid, reference compound]
bioavailability [6]: 47%

CC(C)Oc1nc(NC(=O)CSC(C)(C)C(=O)O)c(Cl)cc1Cl [PD153, 2-((2-((3,5-dichloro-6-isopropoxypyridin-2-yl)amino)-2-oxoethyl)thio)-2-methylpropanoic acid]
Kd (FABP4): 96 nM | Kd (FABP7): 344 nM | Kd (FABP3): 98 nM | Kd (FABP5): 80 nM

CC(C)Oc1ccc(Cl)c(NC(=O)CSCC(=O)O)n1 [PD152.2, 2-((2-((3-chloro-6-isopropoxypyridin-2-yl)amino)-2-oxoethyl)thio)acetic acid]
Activation of transcription by PPARγ (PPARγ): None of these tested compounds activated | Kd (FABP4): 72 nM | Activation of transcription by PPARδ (PPARδ): None of these tested compounds activated | Kd (FABP7): 1000 nM | Kd (FABP3): 125 nM | Activation of transcription by PPARα (PPARα; PPRE luciferase reporter, PD151 and PD152 at 10 μM): None of these tested compounds activated | Kd (FABP5): 141 nM
